# US9428508B2, “2,4-diamino-6,7-dihydro-5H-pyrrolo[2,3]pyrimidine derivatives as FAK/Pyk2 inhibitors” (Centaurus BioPharma Co., Ltd., priority 2011, dated 2016)
# What was measured:
# FAK = FAK (Homo sapiens (Human), UniProt Q05397); assay: Biochemical assay for FAK activity (LANCE TR-FRET, ULight-poly Glu,Ala,Tyr substrate); conditions: GST-tagged FAK, 120 min reaction
# In short: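 GST-tagged FAK (2.5 nM working stock) with ULight-poly Glu,Ala,Tyr (666 nM stock) and ATP (33.3 μM stock) in Tris pH 7.5/MgCl2/DTT/CHAPS buffer with BSA, 120 min; EDTA-quenched. Phosphorylation read by TR-FRET with Eu-anti-phosphotyrosine (PY20) antibody after 60 min. Compounds tested as 12-point 3-fold dilutions.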
# PYK2 = PYK2 (Homo sapiens (Human), UniProt Q14289); assay: Biochemical assay for PYK2 activity (LANCE TR-FRET, ULight-poly Glu,Ala,Tyr substrate); conditions: GST-tagged PYK2, 40 min reaction
# In short: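 GST-tagged human PYK2 (2 nM working stock) with ULight-poly Glu,Ala,Tyr (1:1:1) peptide (666 nM working stock) and ATP (46.6 μM working stock) in 40 mM Tris pH 7.5, MgCl2, 1 mM DTT, 1 mM CHAPS; 40 min reaction, EDTA quench. Phosphotyrosine read by LANCE Eu-anti-phosphotyrosine (PY20) TR-FRET after 60 min; 12-point 3-fold compound dilutions.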
# Sequence of PYK2 (Q14289 whole entry): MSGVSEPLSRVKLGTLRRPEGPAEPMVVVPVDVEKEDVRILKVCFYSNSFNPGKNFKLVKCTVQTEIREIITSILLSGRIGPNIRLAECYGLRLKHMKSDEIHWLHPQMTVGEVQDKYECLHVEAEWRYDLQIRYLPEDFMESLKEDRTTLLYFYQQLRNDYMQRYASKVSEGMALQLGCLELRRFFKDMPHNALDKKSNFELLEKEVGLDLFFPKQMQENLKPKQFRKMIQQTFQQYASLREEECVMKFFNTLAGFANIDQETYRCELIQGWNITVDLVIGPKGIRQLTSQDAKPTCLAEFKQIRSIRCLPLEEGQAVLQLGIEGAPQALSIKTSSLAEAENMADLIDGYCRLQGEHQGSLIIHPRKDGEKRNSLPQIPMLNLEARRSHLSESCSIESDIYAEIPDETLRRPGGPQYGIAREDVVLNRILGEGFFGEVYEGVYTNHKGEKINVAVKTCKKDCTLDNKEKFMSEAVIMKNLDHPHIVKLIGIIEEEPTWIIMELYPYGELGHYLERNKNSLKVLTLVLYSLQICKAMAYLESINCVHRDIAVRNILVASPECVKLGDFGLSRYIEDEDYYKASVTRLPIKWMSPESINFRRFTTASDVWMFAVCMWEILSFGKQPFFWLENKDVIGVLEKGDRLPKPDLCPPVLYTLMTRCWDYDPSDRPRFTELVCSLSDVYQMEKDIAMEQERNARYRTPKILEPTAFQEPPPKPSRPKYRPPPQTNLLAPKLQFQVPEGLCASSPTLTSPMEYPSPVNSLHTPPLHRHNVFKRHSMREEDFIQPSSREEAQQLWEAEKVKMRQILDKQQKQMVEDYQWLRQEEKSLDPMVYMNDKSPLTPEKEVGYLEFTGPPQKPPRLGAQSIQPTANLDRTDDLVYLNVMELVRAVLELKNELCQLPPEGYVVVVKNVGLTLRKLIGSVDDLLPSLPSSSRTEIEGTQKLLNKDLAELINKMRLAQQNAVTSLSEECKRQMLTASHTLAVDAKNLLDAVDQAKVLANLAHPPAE
# Sequence of FAK (Q05397 whole entry): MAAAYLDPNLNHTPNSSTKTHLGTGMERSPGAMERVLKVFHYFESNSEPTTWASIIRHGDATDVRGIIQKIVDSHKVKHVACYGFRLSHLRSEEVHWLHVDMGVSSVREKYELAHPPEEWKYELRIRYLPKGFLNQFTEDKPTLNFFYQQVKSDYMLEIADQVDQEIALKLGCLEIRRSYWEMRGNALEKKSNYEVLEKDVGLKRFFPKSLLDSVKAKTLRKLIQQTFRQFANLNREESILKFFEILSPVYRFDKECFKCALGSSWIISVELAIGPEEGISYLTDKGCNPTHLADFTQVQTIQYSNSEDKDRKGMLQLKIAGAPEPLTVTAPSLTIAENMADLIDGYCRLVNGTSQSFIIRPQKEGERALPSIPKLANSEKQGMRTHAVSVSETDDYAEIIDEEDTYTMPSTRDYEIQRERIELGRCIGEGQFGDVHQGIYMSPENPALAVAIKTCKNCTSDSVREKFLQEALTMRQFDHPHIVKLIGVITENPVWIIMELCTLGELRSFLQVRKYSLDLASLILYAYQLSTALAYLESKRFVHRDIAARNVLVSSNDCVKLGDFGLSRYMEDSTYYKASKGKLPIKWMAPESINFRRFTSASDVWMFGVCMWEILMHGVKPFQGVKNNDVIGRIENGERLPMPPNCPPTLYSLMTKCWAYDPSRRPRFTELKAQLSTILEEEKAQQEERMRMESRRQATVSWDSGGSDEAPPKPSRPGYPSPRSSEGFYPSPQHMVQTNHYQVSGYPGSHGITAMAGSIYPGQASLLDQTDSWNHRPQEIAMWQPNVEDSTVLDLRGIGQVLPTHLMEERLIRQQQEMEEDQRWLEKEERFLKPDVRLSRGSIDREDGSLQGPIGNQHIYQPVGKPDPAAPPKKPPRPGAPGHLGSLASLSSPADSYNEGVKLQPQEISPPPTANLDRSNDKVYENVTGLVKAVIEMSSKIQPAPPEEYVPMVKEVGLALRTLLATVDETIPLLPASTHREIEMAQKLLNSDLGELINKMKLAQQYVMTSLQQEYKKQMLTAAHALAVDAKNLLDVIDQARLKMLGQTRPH
Compound,IC50 (FAK) [nM],IC50 (PYK2) [nM]
"CC(C)NS(=O)(=O)c1ccccc1Nc1nc(Nc2ccc(C(=O)N(C)C)cc2)nc2c1CCN2 [Example 62, 4-(4-(2-(N-isopropylsulfamoyl)phenylamino)-6,7-dihydro-5H-pyrrolo[2,3-d]pyrimidin-2-ylamino)-N,N-dimethylbenzamide]",< 20,< 20
"CC(=O)Nc1ccc(Nc2nc3c(c(Nc4ccccc4S(=O)(=O)NC(C)C)n2)CCN3)cc1 [Example 63, N-(4-(4-(2-(N-isopropylsulfamoyl)phenylamino)-6,7-dihydro-5H-pyrrolo[2,3-d]pyrimidin-2-ylamino)phenyl)acetamide]",< 20,< 20
"CNS(=O)(=O)c1ccc(Nc2nc3c(c(Nc4ccccc4S(=O)(=O)NC(C)C)n2)CCN3)cc1 [Example 64, N-isopropyl-2-(2-(4-(N-methylsulfamoyl)phenylamino)-6,7-dihydro-5H-pyrrolo[2,3-d]pyrimidin-4-ylamino)benzenesulfonamide]",< 20,< 20
"CC(C)NS(=O)(=O)c1ccccc1Nc1nc(Nc2ccc(C(=O)N3CCOCC3)cc2)nc2c1CCN2 [Example 65, N-isopropyl-2-(2-(4-(morpholine-4-carbonyl)phenylamino)-6,7-dihydro-5H-pyrrolo[2,3-d]pyrimidin-4-ylamino)benzenesulfonamide]",< 20,< 20
"Cc1cc(N2CCOCC2)ccc1Nc1nc2c(c(Nc3ccccc3S(=O)(=O)NC(C)C)n1)CCN2 [Example 66, N-isopropyl-2-(2-(2-methyl-4-morpholinophenylamino)-6,7-dihydro-5H-pyrrolo[2,3-d]pyrimidin-4-ylamino)benzenesulfonamide]",< 20,< 50
"COc1cc(N2CCCC2)ccc1Nc1nc2c(c(Nc3ccccc3S(=O)(=O)NC(C)C)n1)CCN2 [Example 67, N-isopropyl-2-(2-(2-methoxy-4-(pyrrolidin-1-yl)phenylamino)-6,7-dihydro-5H-pyrrolo[2,3-d]pyrimidin-4-ylamino)benzenesulfonamide]",< 50,< 100
"COc1cc(N2CCCCC2)ccc1Nc1nc2c(c(Nc3ccccc3S(=O)(=O)NC(C)C)n1)CCN2 [Example 68, N-isopropyl-2-(2-(2-methoxy-4-(piperidin-1-yl)phenylamino)-6,7-dihydro-5H-pyrrolo[2,3-d]pyrimidin-4-ylamino)benzenesulfonamide]",< 50,< 200
"CC(C)NS(=O)(=O)c1ccccc1Nc1nc(Nc2ccc(C(C)O)cc2)nc2c1CCN2 (stereo not shown) [Example 69, 2-(2-(4-(1-hydroxyethyl)phenylamino)-6,7-dihydro-5H-pyrrolo[2,3-d]pyrimidin-4-ylamino)-N-isopropylbenzenesulfonamide]",< 20,< 20
"COc1cc(OCCN2CCOCC2)ccc1Nc1nc2c(c(Nc3ccccc3S(=O)(=O)NC(C)C)n1)CCN2 [Example 70, N-isopropyl-2-(2-(2-methoxy-4-(2-morpholinoethoxy)phenylamino)-6,7-dihydro-5H-pyrrolo[2,3-d]pyrimidin-4-ylamino)benzenesulfonamide]",< 20,< 20
"CC(C)NS(=O)(=O)c1ccccc1Nc1nc(Nc2ccc(OC(F)(F)F)cc2)nc2c1CCN2 [Example 71, N-isopropyl-2-(2-(4-(trifluoromethoxy)phenylamino)-6,7-dihydro-5H-pyrrolo[2,3-d]pyrimidin-4-ylamino)benzenesulfonamide]",< 200,< 100
"CC(C)NC(C)c1ccc(Nc2nc3c(c(Nc4ccccc4S(=O)(=O)NC(C)C)n2)CCN3)cc1 (stereo not shown) [Example 72, N-isopropyl-2-(2-(4-(1-(isopropylamino)ethyl)phenylamino)-6,7-dihydro-5H-pyrrolo[2,3-d]pyrimidin-4-ylamino)benzenesulfonamide]",< 20,< 20
"CC(C)NS(=O)(=O)c1ccccc1Nc1nc(Nc2cccc(NS(C)(=O)=O)c2)nc2c1CCN2 [Example 73, N-isopropyl-2-(2-(3-(methylsulfonamido)phenylamino)-6,7-dihydro-5H-pyrrolo[2,3-d]pyrimidin-4-ylamino)benzenesulfonamide]",< 20,< 20
"CNC(=O)c1cccc(Nc2nc3c(c(Nc4ccccc4S(=O)(=O)NC(C)C)n2)CCN3)c1 [Example 74, 3-(4-(2-(N-isopropylsulfamoyl)phenylamino)-6,7-dihydro-5H-pyrrolo[2,3-d]pyrimidin-2-ylamino)-N-methylbenzamide]",< 20,< 50
"CC(=O)Nc1cccc(Nc2nc3c(c(Nc4ccccc4S(=O)(=O)NC(C)C)n2)CCN3)c1 [Example 75, N-(3-(4-(2-(N-isopropylsulfamoyl)phenylamino)-6,7-dihydro-5H-pyrrolo[2,3-d]pyrimidin-2-ylamino)phenyl)acetamide]",< 20,< 20
"COc1cc(N2CCC(N(C)C)CC2)ccc1Nc1nc2c(c(Nc3ccccc3S(=O)(=O)NC(C)C)n1)CCN2 [Example 76, 2-(2-(4-(4-(dimethylamino)piperidin-1-yl)-2-methoxyphenylamino)-6,7-dihydro-5H-pyrrolo[2,3-d]pyrimidin-4-ylamino)-N-isopropylbenzenesulfonamide]",< 20,< 20
"COc1cc(-n2ccnc2)ccc1Nc1nc2c(c(Nc3ccccc3S(=O)(=O)NC(C)C)n1)CCN2 [Example 77, 2-(2-(4-(1H-imidazol-1-yl)-2-methoxyphenylamino)-6,7-dihydro-5H-pyrrolo[2,3-d]pyrimidin-4-ylamino)-N-isopropylbenzenesulfonamide]",< 500,< 500
"CC(C)NS(=O)(=O)c1ccccc1Nc1nc(Nc2ccc(C(=O)N3CCCC3)cc2)nc2c1CCN2 [Example 78, N-isopropyl-2-(2-(4-(pyrrolidine-1-carbonyl)phenylamino)-6,7-dihydro-5H-pyrrolo[2,3-d]pyrimidin-4-ylamino)benzenesulfonamide]",< 20,< 20
"COc1cc(N2CCC(CO)CC2)ccc1Nc1nc2c(c(Nc3ccccc3S(=O)(=O)NC(C)C)n1)CCN2 [Example 79, 2-(2-(4-(4-(hydroxymethyl)piperidin-1-yl)-2-methoxyphenylamino)-6,7-dihydro-5H-pyrrolo[2,3-d]pyrimidin-4-ylamino)-N-isopropylbenzenesulfonamide]",< 20,< 20
"COc1cc(N2CCC(O)C2)ccc1Nc1nc2c(c(Nc3ccccc3S(=O)(=O)NC(C)C)n1)CCN2 (stereo not shown) [Example 80, 2-(2-(4-(3-hydroxypyrrolidin-1-yl)-2-methoxyphenylamino)-6,7-dihydro-5H-pyrrolo[2,3-d]pyrimidin-4-ylamino)-N-isopropylbenzenesulfonamide]",< 20,< 100
"COc1cc(N2CCCC(O)C2)ccc1Nc1nc2c(c(Nc3ccccc3S(=O)(=O)NC(C)C)n1)CCN2 (stereo not shown) [Example 81, 2-(2-(4-(3-hydroxypiperidin-1-yl)-2-methoxyphenylamino)-6,7-dihydro-5H-pyrrolo[2,3-d]pyrimidin-4-ylamino)-N-isopropylbenzenesulfonamide]",< 20,< 50
"COc1cc(-n2ccccc2=O)ccc1Nc1nc2c(c(Nc3ccccc3S(=O)(=O)NC(C)C)n1)CCN2 [Example 83, N-isopropyl-2-(2-(2-methoxy-4-(2-oxopyridin-1(2H)-yl)phenylamino)-6,7-dihydro-5H-pyrrolo[2,3-d]pyrimidin-4-ylamino)benzenesulfonamide]",< 20,< 20
"COc1cc(N2C(C)COCC2C)ccc1Nc1nc2c(c(Nc3ccccc3S(=O)(=O)NC(C)C)n1)CCN2 (stereo not shown) [Example 84, 2-(2-(4-(3,5-dimethylmorpholino)-2-methoxyphenylamino)-6,7-dihydro-5H-pyrrolo[2,3-d]pyrimidin-4-ylamino)-N-isopropylbenzenesulfonamide]",< 50,< 100
"COc1cc(NCCN2CCOCC2)ccc1Nc1nc2c(c(Nc3ccccc3S(=O)(=O)NC(C)C)n1)CCN2 [Example 85, N-isopropyl-2-(2-(2-methoxy-4-(2-morpholinoethylamino)phenylamino)-6,7-dihydro-5H-pyrrolo[2,3-d]pyrimidin-4-ylamino)benzenesulfonamide]",< 20,< 20
"COc1cc(N2CCC(O)CC2)ccc1Nc1nc2c(c(Nc3ccccc3S(=O)(=O)NC(C)C)n1)CCN2 [Example 86, 2-(2-(4-(4-hydroxypiperidin-1-yl)-2-methoxyphenylamino)-6,7-dihydro-5H-pyrrolo[2,3-d]pyrimidin-4-ylamino)-N-isopropylbenzenesulfonamide]",< 20,< 20
"COc1cc(N2CCS(=O)(=O)CC2)ccc1Nc1nc2c(c(Nc3ccccc3S(=O)(=O)NC(C)C)n1)CCN2 [Example 87, 2-(2-(4-(4-(S,S-dioxothio)piperidin-1-yl)-2-methoxyphenylamino)-6,7-dihydro-5H-pyrrolo[2,3-d]pyrimidin-4-ylamino)-N-isopropylbenzenesulfonamide]",< 20,< 20
"COc1cc(-n2ncnn2)ccc1Nc1nc2c(c(Nc3ccccc3S(=O)(=O)NC(C)C)n1)CCN2 [Example 88, N-isopropyl-2-(2-(2-methoxy-4-(2H-tetrazol-2-yl)phenylamino)-6,7-dihydro-5H-pyrrolo[2,3-d]pyrimidin-4-ylamino)benzenesulfonamide]",< 50,< 200
